Source: ChEMBL document CHEMBL1240352, “Panel of prototypical raltegravir-resistant infectious molecular clones in a novel integrase-deleted cloning vector” (2010)

What was measured:
Type in all cases: functional
[1] = test system: Human immunodeficiency virus 1; assay: (§1) Antiviral activity against Human immunodeficiency virus 1 clone 4736_4 harboring integrase N155H, E92Q and D6E, S17N, R20K, D25E, S39C, L45V, L101I, T124A, K160T, V201I, K211R, D288N mutation transfected in human C8166 cells assessed as decrease in compound susceptibility relative to wild-type
[2] = test system: Human immunodeficiency virus 1; assay: Antiviral activity against Human immunodeficiency virus 1 clone 2253 harboring integrase S17N, V31I, I72V, L101I, T124A, K156N,V201I, I220M, D279G, R284G mutation transfected into human C8166 cells assessed as decrease in compound susceptibility relative to wild-type
[3] = test system: Human immunodeficiency virus 1; assay: Antiviral activity against Human immunodeficiency virus 1 clone 8070_1 harboring integrase G140S, Y143H,Q148H and K14R, L101I, T112A, G193E, D229E, D279G mutation in transfected in human C8166 cells assessed as decrease in compound susceptibility relative to wild-type
[4] = test system: Human immunodeficiency virus 1; assay: Antiviral activity against Human immunodeficiency virus 1 clone 8070_2 harboring integrase G140S, Q148H, K14R, L63I, L101I, T112A, G193E, D229E, D279G mutation transfected in human C8166 cells assessed as decrease in compound susceptibility relative to wild-type
[5] = test system: Human immunodeficiency virus 1; assay: Antiviral activity against Human immunodeficiency virus 1 clone 4736_2 harboring integrase N155H,T97A and D6E, S17N, R20K, D25E, S39C, L45V,L101I, V201I, S119R, T124A, K160T, K211R, D288N mutation transfected into human C8166 cells assessed as decrease in compound susceptibility relative to wild-type
[6] = test system: Human immunodeficiency virus 1; assay: Antiviral activity against Human immunodeficiency virus 1 clone 1288 harboring integrase M154L and E11D, V31I, L101I, K160R, F181L,V201I, T206S, D256E mutation transfected into human C8166 cells assessed as decrease in compound susceptibility relative to wild-type
[7] = test system: Human immunodeficiency virus 1; assay: as §1, with “4736_10” for “4736_4”, “V151I, G163R” for “E92Q”
[8] = test system: Human immunodeficiency virus 1; assay: Antiviral activity against Human immunodeficiency virus 1 clone 4378 harboring integrase E157Q V31I, V32I, S39C, I72V, L101I, K160Q, F181L, V201I, Q216H, A265V mutation transfected in human C8166 cells assessed as decrease in compound susceptibility relative to wild-type
[9] = test system: Human immunodeficiency virus 1; assay: as §1, with “4736_9” for “4736_4”, “E92Q H51Y” for “E92Q”, “S39C, D41H,” for “S39C,”, “V201I,K211R,” for “V201I, K211R,”
[10] = test system: Human immunodeficiency virus 1; assay: Antiviral activity against Human immunodeficiency virus 1 clone 1556 harboring integrase Y143C, L74M, T97A, S230R, K7R, S17N, R20K, L101I, K111Q, T112K, S119R, T206S, D256E, V259I mutation transfected in human C8166 cells assessed as decrease in compound susceptibility relative to wild-type

Cc1nnc(C(=O)NC(C)(C)c2nc(C(=O)NCc3ccc(F)cc3)c(O)c(=O)n2C)o1 [RALTEGRAVIR]
fold change (FC) [1]: 96
fold change (FC) [2]: 0.4
fold change (FC) [3]: >200
fold change (FC) [4]: >200
fold change (FC) [5]: 116
fold change (FC) [6]: 1.06
fold change (FC) [7]: 48
fold change (FC) [8]: 1.15
fold change (FC) [9]: 94
fold change (FC) [10]: >200
